{"source": "patent US7816408B2", "about": "“Calcium receptor active compounds” (NPS Pharmaceuticals, Inc., priority 2002, dated 2010)", "key": {"human calcium receptor": {"biological_target": "T1, human calcium receptor (Homo sapiens, UniProt P41180)", "T1 construct": "expressed in transfected cells; host or cells: HEK293", "T1 sequence (P41180 20-1078)": "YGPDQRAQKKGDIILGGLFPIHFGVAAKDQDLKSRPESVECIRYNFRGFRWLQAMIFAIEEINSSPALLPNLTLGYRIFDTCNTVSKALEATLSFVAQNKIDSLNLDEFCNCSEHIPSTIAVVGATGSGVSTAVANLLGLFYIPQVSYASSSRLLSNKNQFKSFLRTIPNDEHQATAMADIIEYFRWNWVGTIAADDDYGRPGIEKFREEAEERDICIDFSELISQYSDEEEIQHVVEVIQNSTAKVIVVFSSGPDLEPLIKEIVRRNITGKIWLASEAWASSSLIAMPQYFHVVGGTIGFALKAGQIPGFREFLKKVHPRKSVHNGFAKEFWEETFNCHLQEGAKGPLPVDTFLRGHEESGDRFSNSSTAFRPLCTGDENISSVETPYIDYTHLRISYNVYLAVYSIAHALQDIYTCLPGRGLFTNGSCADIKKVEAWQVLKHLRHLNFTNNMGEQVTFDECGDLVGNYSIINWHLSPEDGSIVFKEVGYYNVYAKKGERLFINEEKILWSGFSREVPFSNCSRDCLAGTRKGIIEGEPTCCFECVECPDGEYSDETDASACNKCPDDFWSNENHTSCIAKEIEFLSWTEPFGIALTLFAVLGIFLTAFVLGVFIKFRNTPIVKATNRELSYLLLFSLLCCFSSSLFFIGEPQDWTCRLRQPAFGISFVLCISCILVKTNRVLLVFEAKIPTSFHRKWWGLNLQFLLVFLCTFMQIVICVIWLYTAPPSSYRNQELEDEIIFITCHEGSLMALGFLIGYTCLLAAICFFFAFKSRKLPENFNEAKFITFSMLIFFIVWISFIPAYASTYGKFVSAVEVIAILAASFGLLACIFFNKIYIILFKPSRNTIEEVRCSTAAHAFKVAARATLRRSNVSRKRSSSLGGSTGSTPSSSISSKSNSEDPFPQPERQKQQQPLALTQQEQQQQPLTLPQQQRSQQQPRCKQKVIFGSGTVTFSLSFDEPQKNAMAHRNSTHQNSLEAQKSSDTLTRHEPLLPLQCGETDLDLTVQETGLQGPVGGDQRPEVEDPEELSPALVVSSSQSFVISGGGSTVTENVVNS", "assay": "Activity on calcium receptors: fluo-3 fluorescence in HEK293 cells transfected with human calcium receptor gene", "assay_type": "cell-based", "conditions": "HEK293 cells transfected with plasmid pHuPCaR4.0 (human calcium receptor gene), loaded with fluo-3; 1 mM CaCl2, 1 mM MgCl2", "description": "The activities of the compounds of the present invention on calcium receptors were measured. The measurement was performed in accordance with the method described in Example 4 of Nemeth et al., PCT/US95/13704 (International Publication No. WO96/12697). In brief, HEK293 cells were transfected with a plasmid pHuPCaR4.0 containing a human calcium receptor gene and loaded with fluo-3. The loading was carried out by incubating the cells at 37° C. for 1 hour in Dulbecco's modified Eagle's medium which contained about 5 μM of fluo-3/AM and had been buffered with 20 mM HEPES. Next, the cells were rinsed with Hank's balanced salt solution which contained 1 mM CaCl2 and 1 mM MgCl2 and had been buffered with 20 mM HEPES. Then each test compound was added to the cells and the fluorescence was measured with the use of an excitation wavelength of 485 nm and an emission wavelength of 540 nm."}, "normal male SD rats": {"test_system": "normal male SD rats", "assay": "Plasma Ca^2+ level of rats after single oral administration", "assay_type": "in vivo", "conditions": "rat, mean of six animals, vehicle 10% cyclodextrin (** 1% sodium-CMC); for Plasma Ca^2+ (mmol/l) 0 hr: 0 hr = before oral administration of 30 μmol/kg; for Plasma Ca^2+ (mmol/l) 1 hr: 1 hr after single oral dose 30 μmol/kg; for Plasma Ca^2+ (mmol/l) 2 hr: 2 hr after single oral dose 30 μmol/kg; for Plasma Ca^2+ (mmol/l) 4 hr: 4 hr after single oral dose 30 μmol/kg; for Plasma Ca^2+ (mmol/l) 8 hr: 8 hr after single oral dose 30 μmol/kg; for Plasma Ca^2+ (mmol/l) 23 hr (footnote *c, 24 hr column): 23 hr after single oral dose 30 μmol/kg; for Plasma Ca^2+ (mmol/l) 24 hr: 24 hr after single oral dose 30 μmol/kg", "description": "The compound of the present invention was administered to rats so as to examine the effects of the compound on the plasma calcium ion level and serum PTH level. The test was performed by orally administering single dose of the compound of the invention or a control compound to normal male SD rats with six animals in each group.\nTo the group 1 was administered as a control a 10% cyclodextrin aqueous solution in a dose of 2.5 ml/kg. To the group 2 was administered as a reference (R)-N-(3-(2-chlorophenyl)propyl)-1-(3-methoxyphenyl)ethylamine (KRN568) dissolved in a 10% cyclodextrin aqueous solution in a dose of 30 μmol/kg. To the group 3 was administered the compound of the present invention dissolved in a 10% cyclodextrin aqueous solution in a dose of 30 μmol/kg, provided that 1% sodium-CMC aqueous solution was used in place of 10% cyclodextrin aqueous solution for the compounds marked with ** in Table 2.\nBlood of each rat was collected from the tail tip before the administration and 30 minutes and 1, 2, 4, 8 and 24 hours thereafter (or at the time indicated in Table 2), and the plasma Ca^2+ level and serum PTH level were measured. The data of the serum PTH level were statistically processed by the multiple comparison analysis in accordance with Steel's calibration by using the group 1 as the control."}}}
{"smiles": "Cc1ccc(SCCCCCN[C@H](C)c2cccc3ccccc23)cc1", "note": "[Compound K-2305]", "values": [{"measurement": "EC50", "setting": "human calcium receptor", "value": 110, "unit": "nM"}, {"measurement": "Plasma Ca^2+ (mmol/l) 0 hr", "setting": "normal male SD rats", "value": 1.415, "unit": "mmol/L"}, {"measurement": "Plasma Ca^2+ (mmol/l) 1 hr", "setting": "normal male SD rats", "value": 1.242, "unit": "mmol/L"}, {"measurement": "Plasma Ca^2+ (mmol/l) 2 hr", "setting": "normal male SD rats", "value": 1.170, "unit": "mmol/L"}, {"measurement": "Plasma Ca^2+ (mmol/l) 4 hr", "setting": "normal male SD rats", "value": 1.098, "unit": "mmol/L"}, {"measurement": "Plasma Ca^2+ (mmol/l) 8 hr", "setting": "normal male SD rats", "value": 1.202, "unit": "mmol/L"}]}
{"smiles": "Cc1ccc(CN(Cc2ccc(C)cc2)C(=O)CCN[C@H](C)c2cccc3ccccc23)cc1", "note": "[Compound K-2300, N1,N1-di(4-methylbenzyl)-3-{[(1R)-1-(1-naphthyl)ethyl]amino}propanamide]", "values": [{"measurement": "EC50", "setting": "human calcium receptor", "value": 140, "unit": "nM"}, {"measurement": "Plasma Ca^2+ (mmol/l) 1 hr", "setting": "normal male SD rats", "value": 1.293, "unit": "mmol/L"}, {"measurement": "Plasma Ca^2+ (mmol/l) 2 hr", "setting": "normal male SD rats", "value": 1.158, "unit": "mmol/L"}, {"measurement": "Plasma Ca^2+ (mmol/l) 4 hr", "setting": "normal male SD rats", "value": 0.958, "unit": "mmol/L"}, {"measurement": "Plasma Ca^2+ (mmol/l) 8 hr", "setting": "normal male SD rats", "value": 1.022, "unit": "mmol/L"}, {"measurement": "Plasma Ca^2+ (mmol/l) 23 hr (footnote *c, 24 hr column)", "setting": "normal male SD rats", "value": "1.397*^c mmol/l"}]}
{"smiles": "C[C@@H](NCCC(=O)N(Cc1ccc(OC(F)(F)F)cc1)Cc1ccc(Cl)c(Cl)c1)c1cccc2ccccc12", "note": "[Compound K-2272, N1-(3,4-dichlorobenzyl)-N1-[4-(trifluoromethoxy)benzyl)-3-{[(1R)-1-(1-naphthyl)ethyl]-amino}propanamide]", "values": [{"measurement": "EC50", "setting": "human calcium receptor", "value": 52, "unit": "nM"}, {"measurement": "Plasma Ca^2+ (mmol/l) 1 hr", "setting": "normal male SD rats", "value": 1.382, "unit": "mmol/L"}, {"measurement": "Plasma Ca^2+ (mmol/l) 2 hr", "setting": "normal male SD rats", "value": 1.237, "unit": "mmol/L"}, {"measurement": "Plasma Ca^2+ (mmol/l) 4 hr", "setting": "normal male SD rats", "value": 1.075, "unit": "mmol/L"}, {"measurement": "Plasma Ca^2+ (mmol/l) 8 hr", "setting": "normal male SD rats", "value": 1.022, "unit": "mmol/L"}, {"measurement": "Plasma Ca^2+ (mmol/l) 24 hr", "setting": "normal male SD rats", "value": 1.240, "unit": "mmol/L"}]}
{"smiles": "C[C@@H](NCCCCCCCSc1c(F)c(F)c(C(F)(F)F)c(F)c1F)c1cccc2ccccc12", "note": "[Compound K-2292, N-[(1R)-1-(1-naphthyl)ethyl]-N-(7-{[2,3,5,6-tetrafluoro-4-(trifluoromethyl)phenyl]thio}heptyl)amine]", "values": [{"measurement": "EC50", "setting": "human calcium receptor", "value": 74, "unit": "nM"}, {"measurement": "Plasma Ca^2+ (mmol/l) 1 hr", "setting": "normal male SD rats", "value": 1.375, "unit": "mmol/L"}, {"measurement": "Plasma Ca^2+ (mmol/l) 2 hr", "setting": "normal male SD rats", "value": 1.252, "unit": "mmol/L"}, {"measurement": "Plasma Ca^2+ (mmol/l) 4 hr", "setting": "normal male SD rats", "value": 1.152, "unit": "mmol/L"}, {"measurement": "Plasma Ca^2+ (mmol/l) 8 hr", "setting": "normal male SD rats", "value": 1.108, "unit": "mmol/L"}]}
{"smiles": "COc1ccc(SCCCCCN[C@H](C)c2cccc3ccccc23)cc1", "note": "[Compound K-2280]", "values": [{"measurement": "EC50", "setting": "human calcium receptor", "value": 270, "unit": "nM"}, {"measurement": "Plasma Ca^2+ (mmol/l) 0 hr", "setting": "normal male SD rats", "value": 1.443, "unit": "mmol/L"}, {"measurement": "Plasma Ca^2+ (mmol/l) 1 hr", "setting": "normal male SD rats", "value": 1.233, "unit": "mmol/L"}, {"measurement": "Plasma Ca^2+ (mmol/l) 2 hr", "setting": "normal male SD rats", "value": 1.167, "unit": "mmol/L"}, {"measurement": "Plasma Ca^2+ (mmol/l) 4 hr", "setting": "normal male SD rats", "value": 1.077, "unit": "mmol/L"}, {"measurement": "Plasma Ca^2+ (mmol/l) 8 hr", "setting": "normal male SD rats", "value": 1.142, "unit": "mmol/L"}, {"measurement": "Plasma Ca^2+ (mmol/l) 24 hr", "setting": "normal male SD rats", "value": 1.405, "unit": "mmol/L"}]}
{"smiles": "C[C@@H](NCCCCSc1cc(Cl)ccc1Cl)c1cccc2ccccc12", "note": "[Compound K-2298, N-{4-[(2,5-dichlorophenyl)thio]butyl}-N-[(1R)-1-(1-naphthyl)ethyl]amine]", "values": [{"measurement": "EC50", "setting": "human calcium receptor", "value": 340, "unit": "nM"}, {"measurement": "Plasma Ca^2+ (mmol/l) 1 hr", "setting": "normal male SD rats", "value": 1.348, "unit": "mmol/L"}, {"measurement": "Plasma Ca^2+ (mmol/l) 2 hr", "setting": "normal male SD rats", "value": 1.265, "unit": "mmol/L"}, {"measurement": "Plasma Ca^2+ (mmol/l) 4 hr", "setting": "normal male SD rats", "value": 1.187, "unit": "mmol/L"}, {"measurement": "Plasma Ca^2+ (mmol/l) 8 hr", "setting": "normal male SD rats", "value": 1.100, "unit": "mmol/L"}]}
{"smiles": "C[C@@H](NCCCCCSc1ccc(Cl)cc1)c1cccc2ccccc12", "note": "[Compound K-2027, N-{5-[(4-chlorophenyl)thio]pentyl}-N-[(1R)-1-(1-naphthyl)ethyl]amine]", "values": [{"measurement": "EC50", "setting": "human calcium receptor", "value": 390, "unit": "nM"}, {"measurement": "Plasma Ca^2+ (mmol/l) 1 hr", "setting": "normal male SD rats", "value": 1.197, "unit": "mmol/L"}, {"measurement": "Plasma Ca^2+ (mmol/l) 2 hr", "setting": "normal male SD rats", "value": 1.102, "unit": "mmol/L"}, {"measurement": "Plasma Ca^2+ (mmol/l) 4 hr", "setting": "normal male SD rats", "value": 0.995, "unit": "mmol/L"}, {"measurement": "Plasma Ca^2+ (mmol/l) 8 hr", "setting": "normal male SD rats", "value": 1.048, "unit": "mmol/L"}, {"measurement": "Plasma Ca^2+ (mmol/l) 24 hr", "setting": "normal male SD rats", "value": 1.363, "unit": "mmol/L"}]}
{"smiles": "Cc1ccc(CN(Cc2ccc(C(F)(F)F)cc2)C(=O)CCN[C@H](C)c2cccc3ccccc23)cc1", "note": "[Compound K-2299, N1-(4-methylbenzyl)-N1-[4-(trifluoromethyl)benzyl]-3-{[(1R)-1-(1-naphthyl)ethyl]amino}propanamide]", "values": [{"measurement": "EC50", "setting": "human calcium receptor", "value": 150, "unit": "nM"}, {"measurement": "Plasma Ca^2+ (mmol/l) 1 hr", "setting": "normal male SD rats", "value": 1.287, "unit": "mmol/L"}, {"measurement": "Plasma Ca^2+ (mmol/l) 2 hr", "setting": "normal male SD rats", "value": 1.192, "unit": "mmol/L"}, {"measurement": "Plasma Ca^2+ (mmol/l) 4 hr", "setting": "normal male SD rats", "value": 0.998, "unit": "mmol/L"}, {"measurement": "Plasma Ca^2+ (mmol/l) 8 hr", "setting": "normal male SD rats", "value": 0.983, "unit": "mmol/L"}, {"measurement": "Plasma Ca^2+ (mmol/l) 23 hr (footnote *c, 24 hr column)", "setting": "normal male SD rats", "value": "1.382*^c mmol/l"}]}
{"smiles": "C[C@@H](NCCCCSc1cccc(C(F)(F)F)c1)c1cccc2ccccc12", "note": "[Compound K-2087, N-[(1R)-1-(1-naphthyl)ethyl]-N-(4-{[3-(trifluoromethyl)phenyl]thio}butyl)amine]", "values": [{"measurement": "EC50", "setting": "human calcium receptor", "value": 87, "unit": "nM"}, {"measurement": "Plasma Ca^2+ (mmol/l) 1 hr", "setting": "normal male SD rats", "value": 1.325, "unit": "mmol/L"}, {"measurement": "Plasma Ca^2+ (mmol/l) 2 hr", "setting": "normal male SD rats", "value": 1.243, "unit": "mmol/L"}, {"measurement": "Plasma Ca^2+ (mmol/l) 4 hr", "setting": "normal male SD rats", "value": 1.197, "unit": "mmol/L"}, {"measurement": "Plasma Ca^2+ (mmol/l) 8 hr", "setting": "normal male SD rats", "value": 1.255, "unit": "mmol/L"}]}
